# Reference: paper PMC4770324 (Journal of Medicinal Chemistry, 2016)
# Assay: Chemical stability on storage
compound,measurement,value
O=c1[nH]cnc2c(-n3cc(CCN4CCC(c5cc(F)cc(F)c5)CC4)cn3)nccc12 [Compound 54l],chemical stability in air,chemical instability
